This is an account of results in ChEMBL document CHEMBL3046516, “Efficacy of neem limonoids on Cnaphalocrocis medinalis (Guenee) (Lepidoptera: Pyralidae) the rice leaffolder” (2005).

Assay [1] has as its system Cnaphalocrocis medinalis. Nature of the assay: Antifeedant activity against 4 hr starved fifth-instar larval stage of Cnaphalocrocis medinalis infested compound-treated rice leaves assessed as consumption index at 1 ppm measured every 24 hr for 4 days by gravimetric method (reference value: 2.52 +/- 0.15 mg/mg/day). It is filed as functional.
Assay [2] relates to Cnaphalocrocis medinalis. Nature of the assay: Antifeedant activity against 4 hr starved fifth-instar larval stage of Cnaphalocrocis medinalis infested compound-treated rice leaves assessed as efficacy of conversion of ingested food at 1 ppm measured every 24 hr for 4 days by gravimetric method (reference value: 20.81 +/- 1.58%). It is filed as functional.
Assay [3] has as its system Cnaphalocrocis medinalis. Put plainly: Antifeedant activity against 4 hr starved fifth-instar larval stage of Cnaphalocrocis medinalis infested compound-treated rice leaves assessed as approximate digestibility at 1 ppm measured every 24 hr for 4 days by gravimetric method (reference value: 44.81 +/- 4.12%). It is filed as functional.
Assay [4] has as its system Cnaphalocrocis medinalis. Nature of the assay: Antifeedant activity against 4 hr starved fifth-instar larval stage of Cnaphalocrocis medinalis infested compound-treated rice leaves assessed as reduction in diet consumption after 12 hr by leaf cut-choice assay. It is filed as functional, organism-based.
The test system of assay [5] is Cnaphalocrocis medinalis. Put plainly: Antifeedant activity against 4 hr starved fifth-instar larval stage of Cnaphalocrocis medinalis infested compound-treated rice leaves assessed as relative consumption rate at 1 ppm measured every 24 hr for 4 days by gravimetric method (reference value: 0.524 +/- 0.03 mg/mg/day). The class given is functional.
In assay [6] the test system is Cnaphalocrocis medinalis. Nature of the assay: Antifeedant activity against 4 hr starved fifth-instar larval stage of Cnaphalocrocis medinalis infested compound-treated rice leaves assessed as relative growth rate at 1 ppm measured every 24 hr for 4 days by gravimetric method (reference value: 0.524 +/- 0.03 mg/mg/day). It is filed as functional.
Assay [7] deals with Cnaphalocrocis medinalis. Put plainly: Antifeedant activity against 4 hr starved fifth-instar larval stage of Cnaphalocrocis medinalis infested compound-treated rice leaves assessed as feeding deterrence index at 2 ppm after 12 hr by leaf cut-choice assay (reference value: 0.05 +/- 0.003%). It is filed as functional.
The subject of assay [8] is Cnaphalocrocis medinalis. Put plainly: Antifeedant activity against 4 hr starved fifth-instar larval stage of Cnaphalocrocis medinalis infested compound-treated rice leaves assessed as efficacy of conversion of digested food at 1 ppm measured every 24 hr for 4 days by gravimetric method (reference value: 46.45 +/- 4.12%). The class given is functional.

With `CC(=O)O[C@@H]1C[C@H]2C(C)(C)C(=O)C=C[C@]2(C)[C@H]2CC[C@]3(C)C(=CC(=O)[C@@]3(O)c3ccoc3)[C@@]21C` [17-HYDROXYAZADIRADIONE], the Activity in assay [1] is 2.307 mg/mg/day; in assay [3], 47.217%; in assay [4], “Dose-dependent effect”; in assay [5] it was 0.957 mg/mg/day; in assay [6] it was 0.4197 mg/mg/day; in assay [8], 38.657%. Moreover, in assay [2], the ECI is 18.247%. In addition, the FDI in assay [7] is given as 23.6%.
Turning to `C/C=C(\C)C(=O)O[C@H]1C[C@@H](OC(C)=O)[C@@]2(C(=O)OC)CO[C@H]3[C@@H](O)[C@@](C)([C@]45O[C@@]4(C)[C@@H]4C[C@H]5O[C@@H]5OC=C[C@@]54O)[C@H]4[C@]1(CO[C@]4(O)C(=O)OC)[C@@H]32` [AZADIRACHTIN A], the Activity was 0.427 mg/mg/day in assay [1]; 52.717% in assay [3]; “Dose-dependent effect” in assay [4]; 0.187 mg/mg/day in assay [5]; 0.0277 mg/mg/day in assay [6]; 12.357% in assay [8]. Further, the ECI in assay [2] came to 6.507%. In assay [7], the FDI is on record as 93.2%.
Turning to `CC1(C)C(=O)C=C[C@]2(C)[C@H]3CC[C@@]4(C)[C@H](c5ccoc5)OC(=O)[C@H]5O[C@]54[C@]3(C)[C@H](O)C[C@@H]12` [DEACETYLGEDUNIN], the Activity was 2.207 mg/mg/day in assay [1]; 48.457% in assay [3]; “Dose-dependent effect” in assay [4]; 0.927 mg/mg/day in assay [5]; 0.3857 mg/mg/day in assay [6]; 36.127% in assay [8]. For the same compound, the ECI in assay [2] is reported as 17.507%. In assay [7], the FDI turned out to be 23.6%.
As for `COC(=O)C[C@H]1[C@]2(C)C3=C(C)[C@H](c4ccoc4)C[C@H]3O[C@@H]2[C@H](O)[C@@H]2[C@]1(C)C(=O)C=C[C@@]2(C)C(=O)OC` [DEACETYLNIMBIN], the Activity in assay [1] is 2.327 mg/mg/day; in assay [3] it was 46.747%; in assay [4] it was “Dose-dependent effect”; in assay [5] it was 0.957 mg/mg/day; in assay [6], 0.4247 mg/mg/day; in assay [8], 39.117%. Moreover, the ECI in assay [2] was found to be 18.287%. Further, the FDI in assay [7] came to 21%.
With `CC(=O)O[C@@H]1C[C@H]2C(C)(C)C(=O)C=C[C@]2(C)[C@H]2CC[C@@]3(C)[C@H](c4ccoc4)OC(=O)[C@H]4O[C@]43[C@@]21C` [GEDUNIN], the Activity in assay [1] was 2.357 mg/mg/day; in assay [3], 46.457%; in assay [4], “Dose-dependent effect”; in assay [5], 1.007 mg/mg/day; in assay [6], 0.4707 mg/mg/day; in assay [8], 43.157%. In assay [2], the ECI is on record as 20.07%. Besides, the FDI in assay [7] turned out to be 18.8%.
On to `C/C=C(/C)C(=O)O[C@H]1C[C@@H](OC(C)=O)[C@@]2(C)CO[C@H]3[C@H]4O[C@@H]5C[C@@H](c6ccoc6)C(C)=C5[C@@]4(C)[C@H](CC(=O)OC)[C@]1(C)[C@@H]32` [SALANNIN], for which the Activity in assay [1] was 1.557 mg/mg/day; in assay [3], 49.617%; in assay [4], “Dose-dependent effect”; in assay [5], 0.557 mg/mg/day; in assay [6], 0.2577 mg/mg/day; in assay [8], 33.527%. The ECI in assay [2] worked out at 16.627%. For the same compound, in assay [7], the FDI was 49.6%.
